The experiment has as its target Serine/threonine-protein kinase ATR (Homo sapiens, UniProt Q13535). Description: Inhibition of ATR (unknown origin).

The structures appear in SMILES notation.

Here are results for 2 molecules from ChEMBL document CHEMBL2406961, “Inhibitors of ATR Kinase for Treatment of Cancer” (ACS Med Chem Lett, 2013).

Chain of Serine/threonine-protein kinase ATR (Q13535 whole entry): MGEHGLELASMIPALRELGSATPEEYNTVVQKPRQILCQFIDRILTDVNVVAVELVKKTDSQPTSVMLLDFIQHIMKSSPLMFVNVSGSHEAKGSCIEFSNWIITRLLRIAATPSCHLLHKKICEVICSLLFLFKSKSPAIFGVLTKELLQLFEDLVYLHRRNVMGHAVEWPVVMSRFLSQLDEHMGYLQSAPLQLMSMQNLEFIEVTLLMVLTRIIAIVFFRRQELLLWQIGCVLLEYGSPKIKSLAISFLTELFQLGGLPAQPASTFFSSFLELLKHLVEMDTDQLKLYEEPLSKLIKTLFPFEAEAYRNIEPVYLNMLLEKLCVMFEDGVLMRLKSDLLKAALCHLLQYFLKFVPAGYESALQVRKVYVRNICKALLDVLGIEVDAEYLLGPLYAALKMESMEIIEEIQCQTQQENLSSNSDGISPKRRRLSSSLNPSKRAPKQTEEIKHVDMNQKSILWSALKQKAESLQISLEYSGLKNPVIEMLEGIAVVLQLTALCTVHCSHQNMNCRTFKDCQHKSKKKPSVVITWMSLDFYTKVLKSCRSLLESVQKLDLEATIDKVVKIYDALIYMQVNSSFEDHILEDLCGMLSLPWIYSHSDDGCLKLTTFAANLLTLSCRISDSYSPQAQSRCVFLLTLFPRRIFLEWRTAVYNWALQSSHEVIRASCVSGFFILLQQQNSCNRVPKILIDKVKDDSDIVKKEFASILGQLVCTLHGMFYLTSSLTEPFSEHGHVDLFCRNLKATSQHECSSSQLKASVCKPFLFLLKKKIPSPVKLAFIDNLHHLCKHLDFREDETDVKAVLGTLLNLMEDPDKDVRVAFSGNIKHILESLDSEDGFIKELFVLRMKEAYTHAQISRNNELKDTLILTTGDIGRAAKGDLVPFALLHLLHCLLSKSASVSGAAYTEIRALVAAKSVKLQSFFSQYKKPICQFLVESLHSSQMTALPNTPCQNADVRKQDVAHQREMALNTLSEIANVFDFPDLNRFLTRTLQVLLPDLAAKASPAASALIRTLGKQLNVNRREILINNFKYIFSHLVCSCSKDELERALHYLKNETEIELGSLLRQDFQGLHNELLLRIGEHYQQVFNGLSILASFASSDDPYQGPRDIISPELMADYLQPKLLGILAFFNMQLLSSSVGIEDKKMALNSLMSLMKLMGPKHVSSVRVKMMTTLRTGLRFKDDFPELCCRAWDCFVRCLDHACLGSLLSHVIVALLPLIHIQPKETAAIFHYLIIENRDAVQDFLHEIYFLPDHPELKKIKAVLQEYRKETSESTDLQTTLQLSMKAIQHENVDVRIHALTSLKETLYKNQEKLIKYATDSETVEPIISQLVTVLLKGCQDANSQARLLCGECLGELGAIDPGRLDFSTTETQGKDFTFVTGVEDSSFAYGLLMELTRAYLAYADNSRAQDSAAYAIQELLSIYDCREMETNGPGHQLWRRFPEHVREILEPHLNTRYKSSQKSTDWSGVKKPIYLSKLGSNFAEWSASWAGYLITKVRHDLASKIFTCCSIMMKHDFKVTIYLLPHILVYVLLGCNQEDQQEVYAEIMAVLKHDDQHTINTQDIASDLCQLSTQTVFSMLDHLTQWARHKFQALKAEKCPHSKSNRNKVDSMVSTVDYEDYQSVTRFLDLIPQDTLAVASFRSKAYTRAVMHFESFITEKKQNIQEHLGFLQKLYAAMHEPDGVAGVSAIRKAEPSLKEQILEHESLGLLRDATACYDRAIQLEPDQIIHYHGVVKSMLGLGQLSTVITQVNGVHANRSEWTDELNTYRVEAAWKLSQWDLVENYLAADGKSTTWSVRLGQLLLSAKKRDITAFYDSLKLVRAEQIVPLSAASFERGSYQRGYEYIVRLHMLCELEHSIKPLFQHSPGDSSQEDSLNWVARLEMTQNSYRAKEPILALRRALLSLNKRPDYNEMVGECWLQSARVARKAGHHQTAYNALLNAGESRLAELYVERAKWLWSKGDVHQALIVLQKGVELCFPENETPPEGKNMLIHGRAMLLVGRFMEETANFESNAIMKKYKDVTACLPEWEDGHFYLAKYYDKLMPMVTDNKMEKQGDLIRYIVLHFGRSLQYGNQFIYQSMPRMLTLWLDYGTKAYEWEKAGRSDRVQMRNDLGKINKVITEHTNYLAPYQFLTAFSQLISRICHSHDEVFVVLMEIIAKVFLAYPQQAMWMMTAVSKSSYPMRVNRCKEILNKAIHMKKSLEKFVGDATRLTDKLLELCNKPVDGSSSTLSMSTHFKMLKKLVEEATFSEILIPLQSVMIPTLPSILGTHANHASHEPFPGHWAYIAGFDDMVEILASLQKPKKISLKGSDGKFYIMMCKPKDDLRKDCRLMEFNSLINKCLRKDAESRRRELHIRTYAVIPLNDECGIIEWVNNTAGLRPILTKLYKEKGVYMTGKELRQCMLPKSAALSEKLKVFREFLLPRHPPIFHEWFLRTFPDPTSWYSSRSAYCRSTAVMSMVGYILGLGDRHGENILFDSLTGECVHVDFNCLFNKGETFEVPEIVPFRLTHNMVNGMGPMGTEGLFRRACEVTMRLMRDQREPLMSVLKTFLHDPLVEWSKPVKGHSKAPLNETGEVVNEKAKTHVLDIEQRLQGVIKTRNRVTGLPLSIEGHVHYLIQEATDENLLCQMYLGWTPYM

Usually Ki stands for a dissociation constant, usually derived from enzyme kinetics or from competition with a known ligand. A lower Ki goes with a stronger hold on the target. On to `CC(C)S(=O)(=O)c1ccc(-c2cnc(N)c(C3CC(c4ccccc4)=NO3)n2)cc1` (configuration not stated), for which the Ki was 90 nM.
Next, `CNCc1ccc(C2=NOC(c3nc(-c4ccc(S(=O)(=O)C(C)C)cc4)cnc3N)C2)cc1` (configuration not stated): 16 nM.
